# Assay results reported in ChEMBL document CHEMBL1135981, “Designing analogues of mini atrial natriuretic peptide based on structural analysis by NMR and restrained molecular dynamics” (J Med Chem, 2002).
# Tested on: CHO
# Test: Evaluated for Biological activity, 50% effective concentration determined by its ability to produce cGMP
# Assay type: functional, cell-based
# Details: Cricetulus griseus
row,SMILES,EC50 [nM]
1,CC[C@H](C)[C@@H]1NC(=O)[C@H](CCCN=C(N)N)NC(=O)[C@H](CC(=O)O)NC(=O)[C@H](CCSC)NC(=O)[C@H](CCCN=C(N)N)NC(=O)CNC(=O)[C@@H](C)NC(=O)[C@H](Cc2ccccc2)NC(=O)[C@H](Cc2c[nH]cn2)NC(=O)[C@@H](NC(=O)[C@@H](N)CCSC)CSSC[C@@H](C(=O)N[C@@H](Cc2ccc(O)cc2)C(=O)N[C@@H](CCCN=C(N)N)C(N)=O)NC(=O)[C@H](CO)NC1=O,0.176
2,CC[C@H](C)[C@@H]1NC(=O)[C@H](CCCN=C(N)N)NC(=O)[C@H](CC(=O)O)NC(=O)[C@H](CCSC)NC(=O)[C@H](CCCN=C(N)N)NC(=O)[C@@H](C)NC(=O)[C@@H](C)NC(=O)[C@H](Cc2ccccc2)NC(=O)[C@H](Cc2c[nH]cn2)NC(=O)[C@@H](NC(=O)[C@@H](N)CCSC)CSSC[C@@H](C(=O)N[C@@H](Cc2ccc(O)cc2)C(=O)N[C@@H](CCCN=C(N)N)C(N)=O)NC(=O)[C@H](CO)NC1=O,1.31
3,CC[C@H](C)[C@@H]1NC(=O)[C@H](CCCN=C(N)N)NC(=O)[C@H](CC(=O)O)NC(=O)[C@H](CCSC)NC(=O)[C@H](CCCN=C(N)N)NC(=O)[C@@H](C)NC(=O)CNC(=O)[C@H](Cc2ccccc2)NC(=O)[C@H](Cc2c[nH]cn2)NC(=O)[C@@H](NC(=O)[C@@H](N)CCSC)CSSC[C@@H](C(=O)N[C@@H](Cc2ccc(O)cc2)C(=O)N[C@@H](CCCN=C(N)N)C(N)=O)NC(=O)[C@H](CO)NC1=O,3.76
